Data reported in patent US20150010928A1, “MEANS AND METHODS FOR ASSESSING AN ENDOCRINE DISEASE OR DISORDER” (priority 2012, published 2015).
Marks after values point to notes of the source that are not given here.

Test system: male rats
Test: Plasma metabolite profiling (GC-MS, LC-MS, SPE-LC-MS) in male rats dosed once daily over 28 days (OECD 407)
Assay type: in vivo, rat
Design: key to erythro-Sphingoside (d18:1) / Tricosanoic acid (C23:0) / beta-Sitosterol / Tryptophan: ratio of treated group mean to untreated control group mean
Method: Each dose group in the studies consisted of five rats per sex. Additional groups of each 5 male and female animals served as controls. […] All animals of the animal population were kept under the same constant temperature (20-24±3° C.) and the same constant humidity (30-70%). The animals of the animal population were fed ad libitum. The food to be used was essentially free of chemical or microbial contaminants. Drinking water was also offered ad libitum. Accordingly, the water was free of chemical and microbial contaminants as laid down in the European Drinking Water Directive 98/83/EG. The illumination period was 12 hours light followed by 12 hours darkness (12 hours light, from 6:00 to 18:00, and 12 hours darkness, from 18:00 to 6:00). […] The test substances (compounds) in the Tables 1 to 17 below were dosed and administered as described in the Table 18.
In the morning of day 7, 14, and 28, blood was taken from the retroorbital venous plexus from fasted anaesthetized animals. From each animal, 1 ml of blood was collected with EDTA as anticoagulant. The samples were centrifuged for generation of plasma. All plasma samples were covered with a N2 atmosphere and then stored at −80° C. until analysis.
For mass spectrometry-based metabolite profiling analyses plasma samples were extracted and a polar and a non-polar (lipid) fraction was obtained. For GC-MS analysis, the non-polar fraction was treated with methanol under acidic conditions to yield the fatty acid methyl esters. Both fractions were further derivatised with O-methyl-hydroxyamine hydrochloride and pyridine to convert Oxogroups to O-methyloximes and subsequently with a silylating agent before analysis. In LC-MS analysis, both fractions were reconstituted in appropriate solvent mixtures. HPLC was performed by gradient elution on reversed phase separation columns. Mass spectrometric detection which allows target and high sensitivity MRM (Multiple Reaction Monitoring) profiling in parallel to a full screen analysis was applied as described in WO2003073464.
Steroids and their metabolites were measured by online SPE-LC-MS (Solid phase extraction-LC-MS).
Following comprehensive analytical validation steps, the data for each analyte were normalized against data from pool samples. These samples were run in parallel through the whole process to account for process variability. The significance of treatment group values specific for sex, treatmentduration and metabolite was determined by comparing means of the treated groups to the means of the respective untreated control groups using WELCH-test and quantified with treatment ratios versus control and p-values.
The identification of the most important biomarkers per toxicity pattern was done by a ranking of the analytes in the tables below. Therefore the metabolic changes in reference treatments of a given pattern (shown in the table) were compared with changes of the same metabolite in other unrelated treatments. […] The maximum absolute value of the respective TVALUE was taken to indicate the most important metabolite for the pattern.

[1] = male rats, plasma, high dose, day 7
[2] = male rats, plasma, high dose, day 14
[3] = male rats, plasma, high dose, day 28

3-O-Methylsphingosine (d18:1) (m7, high dose, Table 10a): 3.59 *
5-O-Methylsphingosine (d18:1) (m7, high dose, Table 10a): 3.41 *
Cysteine (m7, high dose, Table 10a): 0.74^
Lignoceric acid (C24:0) (m7, high dose, Table 10a): 2.12 *
Nervonic acid (C24:cis[15]1) (m7, high dose, Table 10a): 2.59 *
Oleic acid (C18:cis[9]1) (m7, high dose, Table 10a): 0.95^
Stearic acid (C18:0) (m7, high dose, Table 10a): 1.34 *
alpha-Tocopherol (m7, high dose, Table 10a): 1.76 *
erythro-Sphingoside (d18:1) (m7, high dose, Table 10a): 2.91 *
threo-Sphingosine (d18:1) (m7, high dose, Table 10a): 2.91 *
Oleic acid (C18:cis[9]1) (m7, high dose, Table 10b): 0.95^
Thyroxine (T4) (m7, high dose, Table 10b): 0.11 *
trans-4-Hydroxyproline (m7, high dose, Table 10b): 0.85 *
3-O-Methylsphingosine (d18:1) (m14, high dose, Table 10a): 3.98 *
5-O-Methylsphingosine (d18:1) (m14, high dose, Table 10a): 4.75 *
Cysteine (m14, high dose, Table 10a): 1.25
Lignoceric acid (C24:0) (m14, high dose, Table 10a): 2.82 *
Nervonic acid (C24:cis[15]1) (m14, high dose, Table 10a): 3 *
Oleic acid (C18:cis[9]1) (m14, high dose, Table 10a): 0.97
Stearic acid (C18:0) (m14, high dose, Table 10a): 1.4 *
alpha-Tocopherol (m14, high dose, Table 10a): 2.66 *
erythro-Sphingoside (d18:1) (m14, high dose, Table 10a): 3.71 *
threo-Sphingosine (d18:1) (m14, high dose, Table 10a): 3.72 *
Oleic acid (C18:cis[9]1) (m14, high dose, Table 10b): 0.97^
Thyroxine (T4) (m14, high dose, Table 10b): 0.04 *
trans-4-Hydroxyproline (m14, high dose, Table 10b): 0.76 *
3-O-Methylsphingosine (d18:1) (m28, high dose, Table 10a): 4.59 *
5-O-Methylsphingosine (d18:1) (m28, high dose, Table 10a): 4.37 *
Cysteine (m28, high dose, Table 10a): 0.92^
Lignoceric acid (C24:0) (m28, high dose, Table 10a): 2.16 *
Nervonic acid (C24:cis[15]1) (m28, high dose, Table 10a): 2.23 *
Oleic acid (C18:cis[9]1) (m28, high dose, Table 10a): 0.87^
alpha-Tocopherol (m28, high dose, Table 10a): 2.18 *
erythro-Sphingoside (d18:1) (m28, high dose, Table 10a): 3.44 *
threo-Sphingosine (d18:1) (m28, high dose, Table 10a): 4.28 *
Oleic acid (C18:cis[9]1) (m28, high dose, Table 10b): 0.87 *
Phosphatidylcholine (C16:0, C16:0) (m28, high dose, Table 10b): 0.92 *
Thyroxine (T4) (m28, high dose, Table 10b): 0.02 *
trans-4-Hydroxyproline (m28, high dose, Table 10b): 0.92^
1,5-Anhydrosorbitol, ratio versus control [1]: 0.81 *
3-O-Methylsphingosine (d18:1), ratio versus control [1]: 3.59 *
5-O-Methylsphingosine (d18:1), ratio versus control [1]: 3.41 *
18-Hydroxy-11-deoxycorticosterone, ratio versus control [1]: 0.38 *
Behenic acid (C22:0), ratio versus control [1]: 2.19 *
Ceramide (d18:1, C24:0), ratio versus control [1]: 2.58 *
Ceramide (d18:1, C24:1), ratio versus control [1]: 1.88 *
Coenzyme Q9, ratio versus control [1]: 1.23
Corticosterone, ratio versus control [1]: 0.38 *
Docosapentaenoic acid (C22:cis[7, 10, 13, 16, 19]5), ratio versus control [1]: 1.16
Glucose, ratio versus control [1]: 1.02
Glycerol, polar fraction, ratio versus control [1]: 0.74 *
Isoleucine, ratio versus control [1]: 0.98
Lignoceric acid (C24:0), ratio versus control [1]: 2.12 *
Linolenic acid (C18:cis[9, 12, 15]3), ratio versus control [1]: 0.7 *
Nervonic acid (C24:cis[15]1), ratio versus control [1]: 2.59 *
Phytosphingosine, ratio versus control [1]: 2 *
Sphingomyelin (d18:1, C16:0), ratio versus control [1]: 2.24 *
Threonic acid, ratio versus control [1]: 0.72 *
Tricosanoic acid (C23:0), ratio versus control [1]: 1.93 *
alpha-Tocopherol, ratio versus control [1]: 2.26 *
erythro-Sphingosine (d18:1), ratio versus control [1]: 2.91 *
threo-Sphingosine (d18:1), ratio versus control [1]: 2.91 *
trans-4-Hydroxyproline, ratio versus control [1]: 0.85 *
1,5-Anhydrosorbitol, ratio versus control [2]: 0.98
3-O-Methylsphingosine (d18:1), ratio versus control [2]: 3.98 *
5-O-Methylsphingosine (d18:1), ratio versus control [2]: 4.75 *
18-Hydroxy-11-deoxycorticosterone, ratio versus control [2]: 0.82
Behenic acid (C22:0), ratio versus control [2]: 3.12 *
Ceramide (d18:1, C24:0), ratio versus control [2]: 2.83 *
Ceramide (d18:1, C24:1), ratio versus control [2]: 2.41 *
Choline plasmalogen (C18, C20:4), ratio versus control [2]: 1.45 *
Coenzyme Q9, ratio versus control [2]: 1.54 *
Corticosterone, ratio versus control [2]: 1.47 *
Docosapentaenoic acid (C22:cis[7, 10, 13, 16, 19]5), ratio versus control [2]: 1.17
Glucose, ratio versus control [2]: 1.11
Glycerol, polar fraction, ratio versus control [2]: 0.64 *
Isoleucine, ratio versus control [2]: 1.18 *
Lignoceric acid (C24:0), ratio versus control [2]: 2.82 *
Linolenic acid (C18:cis[9, 12, 15]3), ratio versus control [2]: 0.8 *
Nervonic acid (C24:cis[15]1), ratio versus control [2]: 3 *
Phosphatidylcholine (C18:0, C22:6), ratio versus control [2]: 0.97
Phytosphingosine, ratio versus control [2]: 3.12 *
Sphingomyelin (d18:1, C16:0), ratio versus control [2]: 2.27 *
Sphingomyelin (d18:1, C24:0), ratio versus control [2]: 1.64 *
Threonic acid, ratio versus control [2]: 0.69 *
Tricosanoic acid (C23:0), ratio versus control [2]: 2.69 *
alpha-Tocopherol, ratio versus control [2]: 3.65 *
erythro-Sphingosine (d18:1), ratio versus control [2]: 3.71 *
threo-Sphingosine (d18:1), ratio versus control [2]: 3.72 *
trans-4-Hydroxyproline, ratio versus control [2]: 0.76 *
1,5-Anhydrosorbitol, ratio versus control [3]: 1.06
3-O-Methylsphingosine (d18:1), ratio versus control [3]: 4.59 *
5-O-Methylsphingosine (d18:1), ratio versus control [3]: 4.37 *
18-Hydroxy-11-deoxycorticosterone, ratio versus control [3]: 0.24 *
Behenic acid (C22:0), ratio versus control [3]: 3.13 *
Ceramide (d18:1, C24:0), ratio versus control [3]: 2.72 *
Ceramide (d18:1, C24:1), ratio versus control [3]: 1.89 *
Coenzyme Q9, ratio versus control [3]: 2.14 *
Corticosterone, ratio versus control [3]: 0.63
Glycerol, polar fraction, ratio versus control [3]: 0.71 *
Isoleucine, ratio versus control [3]: 1.38 *
Lignoceric acid (C24:0), ratio versus control [3]: 2.16 *
Linolenic acid (C18:cis[9, 12, 15]3), ratio versus control [3]: 0.7 *
Nervonic acid (C24:cis[15]1), ratio versus control [3]: 2.23 *
Phosphatidylcholine (C18:0, C22:6), ratio versus control [3]: 1.22 *
Phytosphingosine, ratio versus control [3]: 3.11 *
Sphingomyelin (d18:1, C16:0), ratio versus control [3]: 1.92 *
Sphingomyelin (d18:1, C24:0), ratio versus control [3]: 1.41 *
Threonic acid, ratio versus control [3]: 0.69 *
Tricosanoic acid (C23:0), ratio versus control [3]: 2.5 *
alpha-Tocopherol, ratio versus control [3]: 2.04 *
erythro-Sphingosine (d18:1), ratio versus control [3]: 3.44 *
threo-Sphingosine (d18:1), ratio versus control [3]: 4.28 *
trans-4-Hydroxyproline, ratio versus control [3]: 0.92 *
Docosapentaenoic acid (C22:cis[7, 10, 13, 16, 19]5), ratio versus control (rat, in vivo): 1.24 *
Glucose, ratio versus control (rat, in vivo): 1.06 *
Phosphatidylcholine (C18:0, C22:6), ratio versus control (rat, in vivo): 1.17 *
Sphingomyelin (d18:1, C24:0), ratio versus control (rat, in vivo): 1.35 *
Stearic acid (C18:0) (rat, in vivo): 1.16 *
SMILES: Cn1cc[nH]c1=S [Methimazole]
